Target: T1, p53 Y220C (Homo sapiens, UniProt P04637, P309S/R273H/Y220C)
T1 construct: made in house; host or cells: E. coli
Test: HTRF / TR-FRET in vitro DNA binding activity assay (SC150)
Assay type: biochemical
Conditions: concentration required to increase DNA binding activity of p53 Y220C by 50%; TABLE 10
Description: The ability of a compound of the invention to stabilize p53 Y220C and increase the DNA binding activity of p53 Y220C was measured by a homogeneous time-resolved fluorescence (HTRF) assay. Recombinant His-tagged p53 Y220C used in the HTRF assay was expressed in the bacterium E. coli. The recombinant protein was a truncation mutant containing only amino acids 94-312 of p53, which encompassed the DNA binding domain (DBD) of p53 (SEQ ID NO.: 1). The His-tagged p53 Y220C was tested for DNA binding ability with a consensus sequence of DNA (DNA duplex with a sequence of 5′-[…]-3′; SEQ ID NO.: 2). SEQ ID NO.: 2 was then conjugated with a biotin label and used in the activity assay.
The binding of the recombinant His-tagged p53 Y220C protein and the biotin-labeled consensus DNA was measured using fluorescence resonance energy transfer (FRET). For the FRET assay, the binding between the p53 mutant and the DNA sequence was measured by detecting the fluorescence of the interaction between an anti-His antibody conjugated to allophycocyanin (APC) and streptavidin conjugated to europium to detect the biotin-labeled DNA.
The test compounds were prepared as 4.5 mM stock solutions in dimethyl sulfoxide (DMSO). The compounds of the disclosure were used to test the stabilization of p53 Y220C and increase in DNA binding activity of p53 Y220C. The stock solutions were then serially diluted 3-fold in DMSO, and 1.2 μL of the diluted solutions was added to each well of a 384-well polypropylene black plate. 30 μL of a 181 nM solution of the recombinant His-tagged p53 Y220C protein and 12.1 nM of APC conjugated anti-His tag antibody in ice-cold Assay Buffer 1 (50 mM Tris-HCl, pH 7.4; 75 mM KCl; 0.75 mM DTT; and 0.2 mg/mL bovine serum albumin (BSA) was added to each well containing the test compounds.
As a background control, 30 μL of Assay Buffer 1 containing 12.1 nM of APC anti-His antibody was also added into a second set of serially-diluted compound plates. The test and control samples were spun at 1200 rpm for 1 minute and incubated at room temperature for 15 minutes. The samples were then further incubated at either 27° C. or 29° C. for 60 min. Five microliters of 311 nM biotin labeled consensus DNA (SEQ ID NO.: 2) and 13.03 nM europium-conjugated streptavidin in Assay Buffer 2 (50 mM Tris-HCl, pH 7.4; 75 mM KCl; and 0.2 mg/mL BSA) were added to each well for both the test and control plates. The plates were spun at 1200 rpm for 1 minute and incubated at room temperature for 20 minutes. The assay signals were monitored by reading excitation at 340 nm, and emission fluorescence at 615 nm and 665 nm on a plate reader.
Normalized time-resolved fluorescence resonance energy transfer (TR-FRET) assay signal (Rn) was calculated by the formula: Rn=[(A−Ba−CD)/(D−Bd)](Dc−Bd) where A was the fluorescence intensity of the sample at 665 nm; D was the fluorescence intensity of the sample at 615 nm; Ba and Bd were plate background readings at 665 nm and 615 nm, respectively; and Dc was the fluorescence intensity of 1.8 nM Eu-SA in the assay buffer at 615 nm.
The cross talk factor (C) was determined by the following formula: C═(Ac−Ba)/(DC−Bd) where Ac was the fluorescence intensity of 1.8 nM Eu-labeled anti-FLAG antibody in the assay buffer at 665 nm.
The percentage of activation of protein DNA binding in the presence of a compound of the invention compared to the absence of the compound was denoted by a SC150 value, which indicated the concentration of the compound required to increase the DNA binding activity by 50%. The SC150 values were calculated using either Prism™ or ActivityBase™.

| SMILES | SC150 (μM) |
| --- | --- |
| COCC(O)CN1CCC(Nc2cccc3c2cc(C#CCNc2ccc(S(C)(=O)=O)cc2OC)n3CC(F)(F)F)CC1 (stereo not shown) [Compound 7, 1-{4-[(2-{3-[(4-methanesulfonyl-2-methoxyphenyl)amino]prop-1-yn-1-yl}-1-(2,2,2-trifluoroethyl)-1H-indol-4-yl)amino]piperidin-1-yl}-3-methoxypropan-2-ol] | ′ (′ = 0 μM ≤ SC150 < 0.05 μM) |
| COc1cc(S(C)(=O)=O)ccc1NCC#Cc1cc2c(N[C@H]3CC[C@H](N4CC5CC(C4)O5)CC3)cccc2n1CC(F)(F)F [Compound 10, 2-{3-[(4-methanesulfonyl-2-methoxyphenyl)amino]prop-1-yn-1-yl}-N-[(1r,4r)-4-{6-oxa-3-azabicyclo[3.1.1]heptan-3-yl}cyclohexyl]-1-(2,2,2-trifluoroethyl)-1H-indol-4-amine] | ′ (′ = 0 μM ≤ SC150 < 0.05 μM) |
| COc1cc(S(C)(=O)=O)ccc1NCC#Cc1cc2c(N[C@@H]3CCN(C)C[C@@H]3F)cccc2n1CC(F)(F)F [Compound 13, N-[(3S,4R)-3-fluoro-1-methylpiperidin-4-yl]-2-{3-[(4-methanesulfonyl-2-methoxyphenyl)amino]prop-1-yn-1-yl}-1-(2,2,2-trifluoroethyl)-1H-indol-4-amine] | ′ (′ = 0 μM ≤ SC150 < 0.05 μM) |
| CNC(=O)c1ccc(NCC#Cc2cc3c(N[C@@H]4CCN(C)C[C@@H]4F)cccc3n2CC(F)(F)F)c(OC)c1 [Compound 14, 4-{[3-(4-{[(3S,4R)-3-fluoro-1-methylpiperidin-4-yl]amino}-1-(2,2,2-trifluoroethyl)-1H-indol-2-yl)prop-2-yn-1-yl]amino}-3-methoxy-N-methylbenzamide] | ′ (′ = 0 μM ≤ SC150 < 0.05 μM) |
| COc1cc(S(C)(=O)=O)ccc1NCC#Cc1cc2c(N(C)C)cccc2n1CC(F)(F)F [Molecule 702] | ′′′ (′′′ = 0.1 μM ≤ SC150 < 0.2 μM) |
| COc1cc(S(C)(=O)=O)ccc1NCC#Cc1cc2c(NC(=O)NC3CCN(CCO)CC3)cccc2n1CC(F)(F)F [Molecule 1155] | ′′′′ (′′′′ = 0.2 μM ≤ SC150 < 1 μM) |
| COc1cc(S(=O)(=O)Nc2ccon2)ccc1NCC#Cc1cc2c(NC3CCC(N(C)C)CC3)cccc2n1CC(F)(F)F (stereo not shown) [Molecule 1188] | ′ (′ = 0 μM ≤ SC150 < 0.05 μM) |
| CNC(=O)c1ccc(NCC#Cc2cc3c(NC4CCC(N5CC(S(C)(=O)=O)C5)CC4)cccc3n2CC(F)(F)F)c(OC)c1 (stereo not shown) [Molecule 1330] | ′ (′ = 0 μM ≤ SC150 < 0.05 μM) |
| CN1CCC(Nc2cccc3c2cc(C#CCNc2ccc(S(C)(=O)=O)cc2O)n3CC(F)(F)F)CC1 [Molecule 1623] | ′ (′ = 0 μM ≤ SC150 < 0.05 μM) |
| COc1cc(S(N)(=O)=O)ccc1NCC#Cc1cc2c(NC3CCN(C[C@@H](O)CO)CC3)cccc2n1CC(F)(F)F [Molecule 1687] | ′ (′ = 0 μM ≤ SC150 < 0.05 μM) |
| CNC(=O)c1ccc(NCC#Cc2cc3c(N[C@H]4CCN(C)C[C@H]4F)cccc3n2CC(F)(F)F)c(OC)c1 [Molecule 1921] | ′ (′ = 0 μM ≤ SC150 < 0.05 μM) |
| COc1cc(C(N)=O)ccc1NCC#Cc1cc2c(N[C@@H]3CCN(C)C[C@@H]3F)cccc2n1CC(F)(F)F [Molecule 1938] | ′ (′ = 0 μM ≤ SC150 < 0.05 μM) |
| COc1cc(C(N)=O)ccc1NCC#Cc1cc2c(N[C@H]3CCN(C)C[C@H]3F)cccc2n1CC(F)(F)F [Molecule 1939] | ′ (′ = 0 μM ≤ SC150 < 0.05 μM) |
| COc1cc(C(N)=O)ccc1NCC#Cc1cc2c(NC3C[C@@H](C)O[C@@H](C)C3)cccc2n1CC(F)(F)F (stereo partly shown) [Molecule 2168] | ′′′ (′′′ = 0.1 μM ≤ SC150 < 0.2 μM) |

Same assay, conditions: concentration required to increase DNA binding activity of p53 Y220C by 50%; TABLE 11

| SMILES | SC150 (μM) |
| --- | --- |
| CN1CC[C@H](Nc2cccc3c2cc(-c2ccc(CNC(=O)c4ccccc4)cc2)n3CC(F)(F)F)[C@H](F)C1 [Molecule 2239] | + (+ = 0 μM ≤ SC150 < 2 μM) |
| CN1CC[C@H](Nc2cccc3c2cc(-c2ccc(CNC(=O)C4CC4)cc2)n3CC(F)(F)F)[C@H](F)C1 [Molecule 2240] | + (+ = 0 μM ≤ SC150 < 2 μM) |

Same assay, conditions: concentration required to increase DNA binding activity of p53 Y220C by 50%; TABLE 12

| SMILES | SC150 (μM) |
| --- | --- |
| N#Cc1cccc(-c2cc3c(NC4CCS(=O)(=O)CC4)cccc3n2CC(F)(F)F)c1 [Molecule 2204] | ** (** = 0.1 μM ≤ SC150 < 0.5 μM) |
| Cc1ccc(-c2cc3c(NC4CCS(=O)(=O)CC4)cccc3n2CC(F)(F)F)c(F)c1 [Molecule 2205] | ** (** = 0.1 μM ≤ SC150 < 0.5 μM) |
| O=S1(=O)CCC(Nc2cccc3c2cc(-c2cccc(Cl)c2)n3CC(F)(F)F)CC1 [Molecule 2206] | * (* = 0 μM ≤ SC150 < 0.1 μM) |

— patent US12570645B2, “Uses of p53 x-ray co-crystal structures” (PMV Pharmaceuticals, Inc., priority 2020, dated 2026)
